The source of these data is patent publication US6476051B2, “Antipsychotic heterocycle compounds” (Bristol-Myers Squibb Company, priority 1999, dated 2002).

Structures can show the parent of a compound that is named as a salt. Where two headings read alike, the source gives them in different places.

In data set [1] the target is T1, human serotonin transporters (Homo sapiens, UniProt P31645).
T1 construct: expressed in transfected cells; host or cells: HEK-293 (HEK-hSERT cells), membrane homogenates
T1 sequence (P31645 whole entry): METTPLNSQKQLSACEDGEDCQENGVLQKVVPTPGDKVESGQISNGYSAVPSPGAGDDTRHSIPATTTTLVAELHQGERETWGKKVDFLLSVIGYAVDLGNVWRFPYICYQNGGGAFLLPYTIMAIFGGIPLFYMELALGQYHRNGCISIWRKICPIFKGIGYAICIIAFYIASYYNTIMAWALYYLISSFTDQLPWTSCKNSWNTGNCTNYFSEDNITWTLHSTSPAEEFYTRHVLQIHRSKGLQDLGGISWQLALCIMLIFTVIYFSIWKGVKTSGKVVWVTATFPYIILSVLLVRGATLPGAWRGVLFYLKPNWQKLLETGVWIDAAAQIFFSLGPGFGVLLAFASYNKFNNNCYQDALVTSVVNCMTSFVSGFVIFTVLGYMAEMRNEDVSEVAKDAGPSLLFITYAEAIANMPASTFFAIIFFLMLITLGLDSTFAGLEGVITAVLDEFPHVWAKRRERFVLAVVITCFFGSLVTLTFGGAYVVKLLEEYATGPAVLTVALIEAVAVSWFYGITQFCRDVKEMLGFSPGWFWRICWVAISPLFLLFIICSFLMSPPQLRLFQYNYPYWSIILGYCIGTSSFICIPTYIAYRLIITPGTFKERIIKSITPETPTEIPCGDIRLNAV
Nature of the data set: Serotonin transporter binding assay ([3H]-citalopram binding, HEK-hSERT cell membranes). The source says: The compounds of Formula I bind potently to the human 5-HT transporter and inhibit the re-uptake of endogenous serotonin. Selective serotonin reuptake inhibitors (SSRIs) are effective for the treatment of mental depression and have been reported to be useful for treating chronic pain (see: R. W. Fuller, Pharmacologic Modification of Serotonergic Function: Drugs for the Study and Treatment of Psychiatric and Other Disorders,” J. Clin. Psychiatry, 47:4 (Suppl.) April 1986, pp. 4-8). Compounds of the present invention are also envisioned to be useful for treating psychosis, acute mania, mild anxiety states or depression with secondary psychotic episodes. The present compounds are also envisioned to be useful in treating obsessive-compulsive disorders, feeding disorders, anxiety disorders and panic disorders.
HEK-293 cells that stably express human serotonin transporters (HEK-hSERT cells) were grown at 37° C. in 5% CO2 as a monolayer in medium consisting of EMEM supplemented with 10% fetal bovine serum and G418 sulfate (500 μg/ml). To prepare membranes for radioligand binding experiments, cells were rinsed twice with phosphate-buffered saline (138 mM NaCl, 4.1 mM KCl, 5.1 mM Na2PO4, 1.5 mM […], 11.1 mM glucose, pH 7.4). Cells were transferred from plates to polypropylene tubes (16×100 mm), centrifuged at 1,200×g for 5 min and were frozen at −80° C. until assay. Following centrifugation, pellets were resuspended by homogenization in buffer consisting of 50 mM Tris (pH 7.7 at 25° C.), 120 mM NaCl and 5 mM KCl and then centrifuged at 32,000×g for 10 min. Following centrifugation, supernatants were discarded and pellets were resuspended in buffer consisting of 50 mM Tris (pH 7.4 at 25° C.), 150 mM NaCl and 5 mM KCl. Membrane homogenates (200 μl/plate) were incubated with 1 nM [^3H]-citalopram (specific activity=85 Ci/mmol) and increasing concentrations of test compounds for 1 hour at 25° C. in a total volume of 250 μl. The assay buffer consisted of 50 mM Tris (pH 7.4 at 25° C.), 120 mM NaCl and 5 mM KCl (pH 7.4 with conc. HCl). Plates were incubated for 1 hour at 25° C., then filtered through 0.5% PEI treated Whatman GF/B filters using a Brandel cell harvester. Filters were washed three times with 3 ml of ice-cold tris wash buffer. Non-specific binding was defined with 10 μM fluoxetine. Amount of radioligand bound in the presence and absence of competitor was analyzed by plotting (−)log drug concentration versus the amount of radioligand specifically bound. The midpoint of the displacement curve (IC50, nM), signifies the potency. Ki values were calculated using the method of Cheng and Prusoff (1973).
Substances which inhibit the re-uptake of serotonin are recognized to be effective antidepressants (Selective Serotonin Reuptake Inhibitors. Edited by J P Feighner and W F Boyer, Chichester, England. John Wiley & Sons, 1991, pp 89-108). Test data IC50 values lower than 250 nM are considered to reflect activity as an inhibitor of serotonin re-uptake.

Data set [2] addresses T2, recombinant human dopamine D2L receptors (Homo sapiens, UniProt P14416).
T2 construct: expressed in transfected cells; host or cells: HEK-293 (HEK-D2L cells), membrane homogenates
Nature of the data set: Dopamine binding protocol ([3H]-spiperone binding, HEK-D2L cell membranes). The method, then: Like many clinically effective antipsychotic agents, the compounds of Formula I also are antagonists at the human D2L receptor as determined by [^3H]-spiperone binding studies using human D2L receptors stably expressed in HEK-293 cells.
HEK-293 cells that stably express recombinant human dopamine D2L receptors (HEK-D2L cells) were grown at 37° C. in 5% CO2 as a monolayer in medium consisting of EMEM supplemented with 10% fetal bovine serum and G418 sulfate (500 μg/ml). To prepare membranes for radioligand binding experiments, cells were rinsed twice with phosphate-buffered saline (138 mM NaCl, 4.1 mM KCl, 5.1 mM Na2PO4, 1.5 mM […] 11.1 mM glucose, pH 7.4), and incubated for 5-10 min. at 4° C. in hypotonic lysis buffer consisting of 10 mM Tris (pH 7.4) and 5 mM EDTA. Cells were transferred from plates to polypropylene tubes (16×100 mm), homogenized and centrifuged at 32,000×g for 20 min. Following centrifugation, pellets were resuspended by homogenization in buffer consisting of 50 mM Tris (pH 7.7 at 25° C.) and 1 mM EDTA. Homogenates were stored at −80° C. until needed. On the day of an experiment, homogenates were thawed then centrifuged at 32,000×g for 20 min. Following centrifugation, supernatants were discarded and pellets were resuspended in assay buffer consisting of 50 mM Tris (pH 7.4 at 25° C.), 1 mM EDTA and 6 mM MgCl2. Membrane homogenates (˜5 μg) were incubated with 150 pM [^3H]-spiperone (Amersham Life Science) and increasing concentrations of test compounds for 1.5 hours at 22° C. in a total volume of 400 μl. Reactions were stopped by addition of ice-cold assay buffer and filtration over glass fiber filters (Whatman GFB, pre-soaked in 0.05% polyethylenimine) using a microtitre format Brandel cell harvester. Filters were washed with 3 ml of ice-cold assay buffer. Non-specific binding was defined with 2 μM (+)butaclamol. Ki values were calculated using the method of Cheng and Prusoff (1973). Protein concentrations were determined by the method of Bradford (1976) with BSA as a standard.
Test data IC50 values lower than 250 nM are considered to reflect affinity for dopamine D2L receptors.

Setting [3] is: [3H]-citalopram, HEK-hSERT membranes, read-out: inhibit the re-uptake of serotonin with Ki.
Where [4] appears, read: [3H]-spiperone, HEK-D2L membranes, read-out: dopamine D2L ligands with Ki.

T2 sequence (P14416 whole entry): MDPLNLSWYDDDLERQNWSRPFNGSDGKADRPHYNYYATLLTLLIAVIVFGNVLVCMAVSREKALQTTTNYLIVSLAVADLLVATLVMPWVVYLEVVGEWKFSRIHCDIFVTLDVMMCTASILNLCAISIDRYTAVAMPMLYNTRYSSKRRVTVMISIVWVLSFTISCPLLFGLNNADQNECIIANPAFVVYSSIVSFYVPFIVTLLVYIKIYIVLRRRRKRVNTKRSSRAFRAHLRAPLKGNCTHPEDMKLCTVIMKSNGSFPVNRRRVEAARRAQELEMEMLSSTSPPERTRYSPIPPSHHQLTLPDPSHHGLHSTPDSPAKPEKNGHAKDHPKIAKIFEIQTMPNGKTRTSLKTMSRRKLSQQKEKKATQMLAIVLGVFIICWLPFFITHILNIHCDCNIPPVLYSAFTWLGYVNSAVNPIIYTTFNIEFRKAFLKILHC

As for `Cc1nc2cc(OCCCN3CC=C(c4c[nH]c5cc(Cl)ccc45)CC3)ccc2s1` [Example 22, 5-{3-[4-(6-chloroindol-3-yl)-1,2,5,6-tetrahydropyrid-1-yl]propoxy}-2-methylbenzothiazole], the Ki in data set [1] and in data set [2] was under 100 nM throughout. Take `Cc1nc2cc(OCCCN3CC=C(c4c[nH]c5c(Br)cccc45)CC3)ccc2s1` [Example 28, 5-{3-[4-(7-bromoindol-3-yl)-1,2,5,6-tetrahydropyrid-1-yl]propoxy}-2-methylbenzothiazole]: the Ki in data set [1] and in data set [2] was under 100 nM each time. Turning to `Cc1nc2cc(OCCCCN3CC=C(c4c[nH]c5c(F)cccc45)CC3)ccc2s1` [Example 18, 5-{4-[4-(7-fluoroindol-3-yl)1,2,5,6-tetrahydropyrid-1-yl]butoxy}-2-methylbenzothiazole], the Ki in data set [1] and in data set [2] was under 100 nM throughout. On to `COc1ccc2[nH]cc(C3=CCN(CCCOc4ccc5sc(C)nc5c4)CC3)c2c1` [Example 31, 5-{3-[4-(5-methoxyindol-3-yl)-1,2,5,6-tetrahydropyrid-1-yl]propoxy}-2-methylbenzothiazole], for which the Ki in data set [1] and in data set [2] was under 100 nM each time. As for `Cc1nc2cc(OCCCN3CC=C(c4c[nH]c5ccc(C#N)cc45)CC3)ccc2s1` [Example 12, 5-{3-[4-(5-cyanoindol-3-yl)-1,2,5,6-tetrahydropyrid-1-yl]propoxy}-2-methylbenzothiazole], the Ki in data set [1] and in data set [2] was under 100 nM throughout. As for `COc1ccc(OCCCN2CCC(c3c[nH]c4ccc(C#N)cc34)CC2)cc1OC` [Example 10, 3-{1-[3-(3,4-dimethoxyphenoxy)propyl]-4-piperidinyl}-5-cyanoindole], the Ki in data set [1] (setting [3]) and in data set [2] (setting [4]) was under 100 nM throughout. For `Cc1nc2cc(OCCCCCN3CC=C(c4c[nH]c5cc(Br)ccc45)CC3)ccc2s1` [Example 27, 5-{5-[4-(6-bromoindol-3-yl)-1,2,5,6-tetrahydropyrid-1-yl]pentoxy}-2-methylbenzothiazole], the inhibition constant (Ki) in data set [1] and in data set [2] was under 100 nM in each case. Regarding `Cc1nc2cc(OCCCCN3CC=C(c4c[nH]c5c(Br)cccc45)CC3)ccc2s1` [Example 29, 5-{4-[4-(7-bromoindol-3-yl)1,2,5,6-tetrahydropyrid-1-yl]butoxy}-2-methylbenzothiazole], the inhibitory constant (Ki) in data set [1] and in data set [2] was under 100 nM throughout. In the case of `Cc1nc2cc(OCCCCN3CC=C(c4c[nH]c5cc(Br)ccc45)CC3)ccc2s1` [Example 26, 5-{4-[4-(6-bromoindol-3-yl)1,2,5,6-tetrahydropyrid-1-yl]butoxy}-2-methylbenzothiazole], the Ki in data set [1] and in data set [2] was under 100 nM each time. For `COc1ccc(OCCCN2CCC(c3c[nH]c4ccc(C#N)cc34)CC2)cc1` [Example 9, 3-{1-[3-(4-methoxyphenoxy)propyl]-4-piperidinyl}-5-cyanoindole], the inhibitory constant (Ki) in data set [1] (setting [3]) and in data set [2] (setting [4]) was under 100 nM throughout. Regarding `Cc1nc2cc(OCCCCCN3CC=C(c4c[nH]c5c(Br)cccc45)CC3)ccc2s1` [Example 30, 5-{5-[4-(7-bromoindol-3-yl)-1,2,5,6-tetrahydropyrid-1-yl]pentoxy}-2-methylbenzothiazole], the Ki in data set [1] and in data set [2] was under 100 nM in each case. `N#Cc1ccc2[nH]cc(C3CCN(CCCOc4ccc(F)cc4)CC3)c2c1` [Example 6, 3-{1-[3-(4-fluorophenoxy)propyl]-4-piperidinyl}-5-cyanoindole]: the Ki in data set [1] (setting [3]) and in data set [2] (setting [4]) was under 100 nM in each case. On to `Cc1nc2cc(OCCCN3CC=C(c4c[nH]c5cc(Br)ccc45)CC3)ccc2s1` [Example 25, 5-{3-[4-(6-bromoindol-3-yl)-1,2,5,6-tetrahydropyrid-1-yl]propoxy}-2-methylbenzothiazole], for which the Ki in data set [1] and in data set [2] was under 100 nM in each case. For the compound `Cc1nc2cc(OCCCN3CCC(Cc4cc(F)ccc4F)CC3)ccc2s1` [Example 45, 5-(3-{4-[(2,-5-difluorophenyl)methyl]piperidinyl}propoxy)-2-methylbenzothiazole], the Ki in data set [1] (setting [3]) and in data set [2] (setting [4]) was under 100 nM each time. For the compound `Cc1nc2cc(OCCCN3CC=C(c4c[nH]c5ccc(C#N)cc45)CC3)ccc2s1` (as salt: HCl) [Example 12, 5-{3-[4-(5-cyanoindol-3-yl)-1,2,5,6-tetrahydropyrid-1-yl]propoxy}-2-methylbenzothiazole], the melting point (in general, the temperature of the solid-liquid transition) is 263 to 265 °C.
